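These data come from cells grown in 96-well plates and exposed to compound for 48 hours at five concentrations. Here, GI50 denotes the concentration required for 50% inhibition of growth. The concentration for full growth arrest is given as TGI.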
Test system: MDA-MB-468 breast
Experiment: NCI-60 cell line screen, 48 h

| SMILES | GI50 [nM] | TGI [nM] |
| --- | --- | --- |
| CC(=O)Oc1ccc(/C=N/NC(N)=S)nc1 | 2750 | 15300 |
| COc1cccc(/C=C/C(=O)c2cc3c(N)c(C(=O)Nc4cccc5ccccc45)sc3nc2C)c1 | 1070 | 3000 |
| CN1CCN(c2nc(-c3ccncc3)nc3sc4c(c23)CCCCCC4)CC1 | 5200 | 20200 |
| Oc1[nH]c2cc(Cl)ccc2c1/C=c1/ccc2c(c1)N=C(c1cc(F)cc(F)c1)N=2 | 2510 | 5980 |
| Cc1nc(N)nc2ccccc12 | > 100000 | > 100000 |
| COc1cc(NC(=O)Nc2cnc(Nc3ccc(N4CCOCC4)cc3)nc2Oc2cccc(OC)c2)cc(OC)c1 | 1740 | 9540 |
| C[C@@H](Nc1c(C#N)cnc2ccc(-c3cnc(N)nc3)cc12)c1ccccc1 | 722 | 5800 |
| Cc1cc(C(O)CN(C)C)cc2c1ccc1cc(C(C)C)ccc12 (stereo unspecified) | 1850 | 3470 |
| O=C(Nc1ccccc1C(=O)N/N=C(\c1ccccc1)c1ccccn1)c1ccc(F)cc1 | 192 | 1110 |
| COc1ccc(CCc2cc(OC)c(OC)c(OC)c2)cc1 | 59.9 | > 100000 |
| O=c1c2ccccc2oc2ccc(OCCCCCCN3CCCCCC3)cc12 | 1970 | 5870 |
| Cc1ccc(C(C)C)cc1NC(=O)Nc1ccc([N+](=O)[O-])cc1 | 2390 | 6820 |
| CCOc1cc(-c2ccc[nH]2)[nH]c1/C=C1\N=C(C)C(C(=O)OC)=C1C | 58.3 | 444 |
| Oc1ccc(Cl)cc1Cc1cc(Cl)ccc1O | 2190 | 7290 |
| O=C(Nc1cccc(-n2cc(-c3ccncc3)c(-c3ccc(O)c(Cl)c3)n2)c1)c1cccc(C(F)(F)F)c1 | 3190 | > 100000 |
| CO[C@@]12[C@@H]3NC3CN1C1=C(C(=O)C(N)=C(C)C1=O)[C@@H]2COC(N)=O (stereo partly specified) | 238 | 1280 |
| CC1COCC(C)N1C1=C(Cl)C(=O)c2ccccc2C1=O (stereo unspecified) | 1590 | 3280 |
| COc1cc([N+](=O)[O-])c2ncccc2c1[N+](=O)[O-] | 1720 | 3670 |
| CC/C=C\C/C=C\C[C@H](O)C/C=C1/C(=O)C=C[C@@H]1C/C=C\CCCC(=O)OC | 1470 | 3160 |
| CCC(CC(C)C)Nc1ccc(NC(CC)CC(C)C)cc1 (stereo unspecified) | 11700 | 24000 |
| Nc1[nH]c(=O)ncc1CO | > 100000 | > 100000 |
| CC1(C)OC2C(COS(N)(=O)=O)SC(n3cnc4cncnc43)C2O1 (stereo unspecified) | > 100000 | > 100000 |
| CC1(C)CC[C@]2(C(N)=O)CC[C@]3(C)C(=CC[C@@H]4[C@@]5(C)C/C(=C/c6ccncc6)C(=O)C(C)(C)[C@@H]5CC[C@]43C)[C@@H]2C1 | 2330 | 7440 |
| O=S(=O)(NCCCNc1nccc(-c2[nH]c(-c3ccccc3)nc2-c2ccc(F)c(O)c2)n1)c1ccc(C(F)(F)F)cc1 | 2440 | 7700 |
| CO[C@]1(CN2CCN3CCCC[C@@H]3C2)/C=C/C[C@H](C)[C@@H](C)S(=O)(=O)NC(=O)c2ccc3c(c2)N(C[C@@H]2CC[C@H]21)C[C@@]1(CCCc2cc(Cl)ccc21)CO3 | 166 | 1240 |
| Cc1cc(Cl)ccc1NS(=O)(=O)c1ccc(-c2cnc(C3CC3)o2)cc1 | 86.1 | 13700 |
| O=C(NCCCCCCCNC(=O)OCc1ccc2c(Cl)cc(Cl)c(O)c2n1)OCc1ccc2c(Cl)cc(Cl)c(O)c2n1 | 389 | 1200 |
| C=CC1CN2CCC1CC2C(O)c1ccnc2ccccc12 (stereo unspecified) | > 100000 | > 100000 |
